# In patent US8877765B2, “Highly soluble pyrimido-dione-quinoline compounds and their use in the treatment of cancer” (The United States of America as represented by the …, priority 2006, dated 2014):
# Where a SMILES comes first, the peptide text is derived from it. [ ]: non-standard residue; d: D form. Nle = CCCC[C@H](N)C(=O)O
# Tests used:
# [1] = tested on: tumor cells expressing wild type p53; assay: Apoptosis-inducing activity in tumor cell lines that do or do not express p53; assay type: cell-based; conditions: pair of cell lines that either do or do not express p53; FIG. 7
# [2] = Additional experiments on DNA damage (data not shown)
# [3] = molecular target: gp78 (AMFR) (Homo sapiens, UniProt Q9UKV5); assay: E3 specificity: level of transfected gp78 in MEFs expressing neither Mdm2 nor p53; conditions: immunoblotting, FIG. 5
# Description: (§1) Following treatment with ALLN, 1, 2 (10-(4-methyl-phenyl)-7-nitro-10H-pyrimido[4,5-b]quinoline-2,4-dione), 3 (10-(4-chloro-phenyl)-7-nitro-10H-pyrimido[4,5-b]quinoline-2,4-dione), and 4 (10-(3-chloro-phenyl)-7-nitro-10H-pyrimido[4,5-b]quinoline-2,4-dione), levels of the E3s were examined by immunoblotting with specific antibodies.
# [4] = tested on: Hdm2 and p53; assay: Accumulation of Hdm2 and p53 in non-transformed RPE cells (immunoblot); assay type: cell-based, human; conditions: 8 hours, 5 μM or 10 μM solution in PBS, or 5 μm solution in DMSO, FIG. 1
# Description: Human retina pigment epithelial (RPE) cells were cultured with HyQ DME/F (HyClone) supplemented with 10% FCS and 2.5% Sodium Bicarbonate. They were harvested with Trpsin-EDTA and seeded into a 12-well tissue culture cluster and incubated for 18-40 hours to reach 80% confluent. Following treatment with indicated compounds for 8 hours, the cells were harvested and lysed with RIPA buffer. Following removal of insoluble pellet by centrifugation for 20 minutes at 10000 rpm, the lysate was separated on a 4-20% gradient SDS-polyacrylamide gel and transferred onto nitrocellulose membrane. The membrane was then blotted with anti-p53 antibody (DO-1) anti-Hdm2 antibodies (Ab-1 and Ab-2). After extensive washing with PBS containing 0.5% Triton x-100, it was incubated with HRP-conjugated donkey anti-mouse antibody and visualized using enhanced chemiluminescence.
# [5] = tested on: p53; assay: p53 response element-driven luciferase reporter in U2OS cells; assay type: cell-based; conditions: 18 hours, FIG. 3
# Description: U2OS cells stably transfected with a p53 response element-driven luciferase were treated with indicated concentration of compounds for 18 hours. The cells were then harvested and lysed to measure luciferase activity using the luciferase assay system (Promega) according to manufacturer's instruction.
# [6] = molecular target: T1, Hdm2 (Homo sapiens, UniProt Q00987); conditions: U2OS cells; FIG. 6
# [7] = molecular target: T1, Hdm2; assay: E3 specificity: level of transfected Hdm2 in MEFs expressing neither Mdm2 nor p53; conditions: immunoblotting, FIG. 5
# Description: as §1
# [8] = tested on: AO7 (RNF25); assay: E3 specificity: level of transfected AO7 in MEFs expressing neither Mdm2 nor p53; conditions: immunoblotting, FIG. 5
# Description: as §1
# T1 sequence (Q00987 whole entry): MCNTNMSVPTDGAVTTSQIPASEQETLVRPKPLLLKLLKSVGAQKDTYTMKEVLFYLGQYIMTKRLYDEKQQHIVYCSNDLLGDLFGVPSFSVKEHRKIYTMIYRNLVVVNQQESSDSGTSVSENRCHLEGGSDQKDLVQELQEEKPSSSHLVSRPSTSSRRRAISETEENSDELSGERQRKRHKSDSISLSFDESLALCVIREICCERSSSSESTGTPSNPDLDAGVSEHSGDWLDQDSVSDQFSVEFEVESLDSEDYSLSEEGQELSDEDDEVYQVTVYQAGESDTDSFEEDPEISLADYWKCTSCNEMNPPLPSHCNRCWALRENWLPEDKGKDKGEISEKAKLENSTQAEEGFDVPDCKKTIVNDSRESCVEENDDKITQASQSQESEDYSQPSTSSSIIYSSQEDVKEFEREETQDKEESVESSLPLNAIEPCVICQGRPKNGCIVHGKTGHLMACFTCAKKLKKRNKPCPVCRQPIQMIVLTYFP
# Sequence of gp78 (AMFR) (Q9UKV5 whole entry, species assumed): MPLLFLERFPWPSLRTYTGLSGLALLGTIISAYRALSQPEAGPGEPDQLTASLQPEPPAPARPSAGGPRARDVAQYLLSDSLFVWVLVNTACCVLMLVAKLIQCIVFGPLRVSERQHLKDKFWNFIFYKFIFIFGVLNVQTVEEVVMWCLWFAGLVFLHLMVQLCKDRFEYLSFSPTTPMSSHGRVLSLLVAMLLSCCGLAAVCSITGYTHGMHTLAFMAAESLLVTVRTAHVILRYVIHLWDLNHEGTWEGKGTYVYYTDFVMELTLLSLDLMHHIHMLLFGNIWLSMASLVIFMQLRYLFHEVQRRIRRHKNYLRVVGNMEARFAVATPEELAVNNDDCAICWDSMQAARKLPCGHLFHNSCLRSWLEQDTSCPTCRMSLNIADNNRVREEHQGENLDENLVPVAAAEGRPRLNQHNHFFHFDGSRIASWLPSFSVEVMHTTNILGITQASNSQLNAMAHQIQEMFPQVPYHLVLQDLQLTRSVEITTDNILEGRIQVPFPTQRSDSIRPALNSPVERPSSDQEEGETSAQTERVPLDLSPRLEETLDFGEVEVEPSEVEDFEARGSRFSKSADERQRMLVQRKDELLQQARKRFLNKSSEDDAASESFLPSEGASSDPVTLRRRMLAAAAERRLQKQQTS
structure (smiles),measurement,setting,value
"CN(C)CCCNc1c2c(=O)n(C)c(=O)nc-2n(C)c2ccccc12 [Compound 1, 5-(3-Dimethylamino-propylamino)-3,10-dimethyl-10H-pyrimido[4,5-b]quinoline-2,4-dione]",killing of tumor cells by p53 status,[1],preferential killing of tumor cells expressing wild type p53
same,functioning by inducing DNA damage,[2],ruled out
same,level of gp78,[3],little effects
same,accumulation of both Hdm2 and p53,[4],significant accumulation of both Hdm2 and p53
same,capacity to activate a p53 reporter (luciferase activity),[5],high capacity to activate a p53 reporter
same,p53 reporter activity compared with proteosome inhibitor and Adriamycin,[5]; concentration of 10 μM,much greater than proteosome inhibitor and Adriamycin
CCCC[C@@H](C=O)NC(=O)[C@H](CC(C)C)NC(=O)[C@H](CC(C)C)NC(C)=O [ALLN] (Ac-Leu-Leu-[Nle]-aldehyde),accumulation of ubiquitylated p53,[6],easily detectable
same,degradation / stabilization of p53 and Hdm2,[6],stabilized Hdm2 and p53
same,level of Hdm2,[7],higher levels
same,level of gp78,[3],higher levels
same,level of AO7,[8],higher levels
